Laboratory results from PMC10382406, “Head-to-head comparison of different classes of FAP radioligands designed to increase tumor residence time: monomer, dimer, albumin binders, and small molecules vs peptides” (European Journal of Nuclear Medicine and Molecular Imaging, 2023).

Molecular target: T1, hFAP (Homo sapiens, UniProt Q12884)
T1 sequence (Q12884 1-760): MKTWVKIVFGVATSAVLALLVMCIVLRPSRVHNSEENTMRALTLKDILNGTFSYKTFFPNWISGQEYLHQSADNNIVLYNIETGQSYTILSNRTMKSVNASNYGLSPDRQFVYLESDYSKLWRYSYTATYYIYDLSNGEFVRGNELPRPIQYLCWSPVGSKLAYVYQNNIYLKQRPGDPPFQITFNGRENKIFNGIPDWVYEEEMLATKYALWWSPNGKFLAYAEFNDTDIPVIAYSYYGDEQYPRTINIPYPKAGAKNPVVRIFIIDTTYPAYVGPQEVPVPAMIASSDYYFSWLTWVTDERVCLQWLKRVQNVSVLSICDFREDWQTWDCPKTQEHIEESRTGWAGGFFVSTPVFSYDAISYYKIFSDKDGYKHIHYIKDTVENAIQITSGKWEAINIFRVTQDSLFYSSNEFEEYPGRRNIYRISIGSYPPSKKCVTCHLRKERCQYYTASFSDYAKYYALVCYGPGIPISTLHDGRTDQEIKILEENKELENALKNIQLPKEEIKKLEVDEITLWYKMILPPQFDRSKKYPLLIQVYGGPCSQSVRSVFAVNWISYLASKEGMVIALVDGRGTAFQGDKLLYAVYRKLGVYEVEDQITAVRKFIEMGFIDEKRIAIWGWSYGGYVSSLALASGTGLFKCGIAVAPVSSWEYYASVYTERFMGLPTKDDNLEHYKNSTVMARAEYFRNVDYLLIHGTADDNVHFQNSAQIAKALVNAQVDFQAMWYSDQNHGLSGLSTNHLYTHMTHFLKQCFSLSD
Test: In vitro inhibition assay on hFAP (substrate Z-Gly-Pro-AMC)
Format: biochemical
Details: isolated hFAP 200 pM, Z-Gly-Pro-AMC 20 μM, room temperature
Description: The IC50 of all the ligands against isolated hFAP protein was assessed by an inhibition assay following published protocols (Supplementary Information and Supplementary Fig. 3).
In vitro inhibition assay on hFAP
The enzymatic activity of hFAP on the substrate Z-Gly-Pro-AMC was measured at room temperature on a microtiter plate reader, monitoring the fluorescence at an excitation wavelength of 360 nm and an emission wavelength of 465 nm. The assay was performed by mixing the substrate (20 μM), hFAP (200 pM, constant), and the ligands in assay buffer (50 mM Tris, 1 M NaCl, 1 mg/mL BSA, pH=7.5), with serial dilution of the inhibitors ranging from 250 nM to 2 fM, 1:2 in a total volume of 20 μL.
Experiments were performed in triplicate, and the mean fluorescence values were fitted using GraphPad Prism 9 (equation used: Y = Bottom + (Top − Bottom)/(1 +
((X^HillSlope)/(IC50^HillSlope)))). The IC50 value is defined as the concentration of ligand (inhibitor) required to reduce the enzyme activity by 50% after the addition of the substrate.
The results are presented in the Supplemental Figure 3.
(1 picture or pasted object on this page, not shown here)

SMILES | IC50 [nM]
Cc1cc(-c2ccc(NC(=O)CC(NC(=O)CN3CCN(CC(=O)O)CCN(CC(=O)O)CCN(CC(=O)O)CC3)C(=O)N3CCN(CCCN(C)c4ccc5nccc(C(=O)NCC(=O)N6CC(F)(F)CC6C#N)c5c4)CC3)c(C)c2)ccc1N=Nc1ccc2c(S(=O)(=O)O)cc(S(=O)(=O)O)c(N)c2c1O (stereo not shown) [FAPI-46-EB] | 0.634 ± 0.102
CC(C)Cc1ccc(C(C)C(=O)NCC(NC(=O)CN2CCN(CC(=O)O)CCN(CC(=O)O)CCN(CC(=O)O)CC2)C(=O)N2CCN(CCCN(C)c3ccc4nccc(C(=O)NCC(=O)N5CC(F)(F)C[C@H]5C#N)c4c3)CC2)cc1 (stereo partly shown) [FAPI-46-Ibu] | 0.0394 ± 0.0161
CN(CCCN1CCN(C(=O)CN2CCN(CC(=O)O)CCN(CC(=O)O)CCN(CC(=O)O)CC2)CC1)c1ccc2nccc(C(=O)NCC(=O)N3CC(F)(F)C[C@H]3C#N)c2c1 [FAPI-46, reference compound] | 0.247 ± 0.017
CN(CCCN1CCN(C(=O)CC(NC(=O)CN2CCN(CC(=O)O)CCN(CC(=O)O)CCN(CC(=O)O)CC2)C(=O)N2CCN(CCCN(C)c3ccc4nccc(C(=O)NCC(=O)N5CC(F)(F)C[C@H]5C#N)c4c3)CC2)CC1)c1ccc2nccc(C(=O)NCC(=O)N3CC(F)(F)C[C@H]3C#N)c2c1 (stereo partly shown) [FAPI-46-F1D] | 0.158 ± 0.0145
